Measured values taken from patent publication US7718391B2, “Assays for identifying modulators of rhomboid polypeptides” (Medical Research Council, priority 2001, dated 2010).
Where two headings read alike, the source gives them in different places. One block for each molecule: values may come before it. Non-standard residues stand in square brackets, D forms with d. Residues, ends and D or L forms follow the SMILES beside them. *: point of attachment. Sta = CC(C)C[C@H](N)[C@@H](O)CC(=O)O; Isovaleryl = CC(C)CC(=O)*; Nle = CCCC[C@H](N)C(=O)O; Cbz = O=C(OCc1ccccc1)*

What was measured:
Rhomboid-1 = target: T1, Rhomboid-1 (Drosophila melanogaster, UniProt P20350); test: Rhomboid-1 and Star dependent cleavage of GFP-Spitz in transfected COS cells (western blot of medium); type: cell-based
T1 construct: When co-expressed with Star and full-length Rhomboid-1 in the COS cell Spitz cleavage assay; expressed in transfected cells; host or cells: COS cells, pcDNA3.1 constructs, transient transfection
T1 sequence (P20350 1-355): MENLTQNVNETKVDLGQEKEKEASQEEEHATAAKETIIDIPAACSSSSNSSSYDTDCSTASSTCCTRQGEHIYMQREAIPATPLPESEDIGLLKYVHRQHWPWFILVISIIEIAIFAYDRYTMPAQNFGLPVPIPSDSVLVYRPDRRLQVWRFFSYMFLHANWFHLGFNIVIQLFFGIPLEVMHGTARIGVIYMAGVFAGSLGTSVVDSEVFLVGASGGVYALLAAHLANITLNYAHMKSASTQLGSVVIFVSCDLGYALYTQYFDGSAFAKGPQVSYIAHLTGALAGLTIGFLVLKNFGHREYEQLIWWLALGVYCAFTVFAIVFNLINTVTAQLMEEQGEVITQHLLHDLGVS
Experimental: COS cells were grown in DMEM medium (supplemented with 10% foetal calf serum), and transfected with FuGENE 6 Transfection Reagent (Roche). Cells were transfected in 35 mm culture wells with 25-250 ng of each construct and empty plasmid to bring the total DNA to 1 μg per well. 24-30 hours post-transfection the medium was replaced with serum-free medium; this was harvested 24 hours later and cells were lysed in SDS-sample buffer. GFP was detected in conditioned medium and cell lysates by western blot with a rabbit polyclonal antibody. For some experiments the serum-free medium was supplemented with the metalloprotease inhibitor batimastat (British Biotech) or ilomostat (Calbiochem). Cells were transfected as standard with 1 ng of Rhomboid-1 DNA (in 1 μg total DNA) and were then incubated in serum-free medium for 24 hours. The medium was then replaced with 0.5 ml serum free medium containing protease inhibitor at the indicated concentration and incubated for 1 hour. After 1 hour, the medium was collected, cleared by centrifugation, dialysed overnight against several changes of water and lyophilised. The resulting pellets were re-suspended in SDS sample buffer, boiled and analysed by Western blot. Transfections with a secreted form of Spitz were used in parallel to control for non-specific toxicity of the protease inhibitors or general inhibition of the secretory pathway. The proteolytic cleavage assay was recapitulated in a mammalian tissue culture system. Spitz was tagged with GFP near its N-terminus and transiently expressed in COS cells, in the presence or absence of Star and/or Rhomboid-1. The accumulation of the soluble extracellular fragment of GFP-Spitz in the cell medium was then measured by western blot.

[1] = test system: uncleavable Spitz-TGFα chimera with Spitz residue G143 restored in the TGFα TMD
[2] = test system: uncleavable Spitz-TGFα chimera (Spitz with residues 140-160 replaced by the equivalent residues from TGFα, with the TGFα C-terminus)
[3] = test system: artificially truncated form of Spitz; test: Control: expression or secretion of an artificially truncated (secreted) form of Spitz; type: cell-based, Drosophila; settings: this concentration (10-100:M)
Experimental: Cells were transfected as standard with 1 ng of Rhomboid-1 DNA (in 1 μg total DNA) and were then incubated in serum-free medium for 24 hours. The medium was then replaced with 0.5 ml serum free medium containing protease inhibitor at the indicated concentration and incubated for 1 hour. After 1 hour, the medium was collected, cleared by centrifugation, dialysed overnight against several changes of water and lyophilised. The resulting pellets were re-suspended in SDS sample buffer, boiled and analysed by Western blot. Transfections with a secreted form of Spitz were used in parallel to control for non-specific toxicity of the protease inhibitors or general inhibition of the secretory pathway.

[4] = target: uncleavable Spitz-TGFα chimera (Spitz with residues 140-160 replaced by the equivalent residues from TGFα, with the TGFα C-terminus); remark: listed apart in the source
[5] = target: uncleavable Spitz-TGFα chimera with Spitz residue G143 restored in the TGFα TMD; remark: listed apart in the source

- inhibition of Rhomboid activity, standard cleavage assay with panel of inhibitors (Rhomboid-1; 50:M): No inhibition
Molecule: CCOC(=O)[C@H]1O[C@@H]1C(=O)N[C@@H](CC(C)C)C(=O)NCCC(C)C [E64d]

Molecule: Drosophila Rhomboid-2
- protease activity against the TGFα TMD with a restored G143 [1]: did cleave when only G143 was added back
- protease activity against the uncleavable form of Spitz [2]: they could not cleave the TGFα TMD

- inhibition of Rhomboid activity, standard cleavage assay with panel of inhibitors (Rhomboid-1; 25:M): No inhibition
Molecule: CCCC[C@@H](C=O)NC(=O)[C@H](CC(C)C)NC(=O)[C@H](CC(C)C)NC(=O)OCc1ccccc1 [gamma secretase inhibitor I] (Cbz-Leu-Leu-[Nle]-aldehyde)

- inhibition of Rhomboid activity, standard cleavage assay with panel of inhibitors (Rhomboid-1; concentration not given): No inhibition
Molecule: O=C(O)/C(S)=C/c1ccc(I)cc1 [PD150606]

- Rhomboid activity (summary statement) (Rhomboid-1): inhibit
- inhibition of Rhomboid activity, standard cleavage assay with panel of inhibitors (Rhomboid-1; 10-100:M): strongly inhibited
Molecule: O=c1oc(Cl)c(Cl)c2ccccc12 [3,4-DCI]
- expression or secretion of an artificially truncated form of Spitz (extracellular domain) [3]: did not effect

Molecule: CC(=O)N[C@@H](CC(C)C)C(=O)N[C@@H](CC(C)C)C(=O)N[C@H](C=O)CCCNC(=N)N [leupeptin]
- inhibition of Rhomboid activity, standard cleavage assay with panel of inhibitors (Rhomboid-1; 100:M): No inhibition

Molecule: CC(C)CC(=O)N[C@H](C(=O)N[C@H](C(=O)N[C@@H](CC(C)C)[C@@H](O)CC(=O)N[C@@H](C)C(=O)N[C@@H](CC(C)C)[C@@H](O)CC(=O)O)C(C)C)C(C)C [pepstatin A] (Isovaleryl-VV[Sta]A[Sta]-OH)
- inhibition of Rhomboid activity, standard cleavage assay with panel of inhibitors (Rhomboid-1; 50:M): No inhibition

Molecule: Cc1ccc(S(=O)(=O)N[C@@H](Cc2ccccc2)C(=O)CCl)cc1 [TPCK]
- Rhomboid activity (summary statement) (Rhomboid-1): inhibit
- inhibition of Rhomboid activity, standard cleavage assay with panel of inhibitors (Rhomboid-1; 10-100:M): strongly inhibited
- expression or secretion of an artificially truncated form of Spitz (extracellular domain) [3]: did not effect

Molecule: Drosophila Rhomboid-3
- protease activity against the TGFα TMD with a restored G143 [1]: did cleave when only G143 was added back
- protease activity against the uncleavable form of Spitz [2]: they could not cleave the TGFα TMD

- Rhomboid-1-dependent cleavage of Spitz (Rhomboid-1; concentration not given): insensitive
- inhibition of Rhomboid activity, standard cleavage assay with panel of inhibitors (Rhomboid-1; concentration not given): No inhibition
Molecule: CNC(=O)[C@H](Cc1c[nH]c2ccccc12)NC(=O)[C@@H](CC(=O)NO)CC(C)C [ilomostat]

B1: Human RHBDL2 (protein)
chain: MNLNMGREMKEELEEEEKMREDGGGKDRAKSKKVHRIVSKWMLPEKSRGTYLERANCFPPPVFIISISLAELAVFIYYAVWKPQKQWITLDTGILESPFIYSPEKREEAWRFISYMLVHAGVQHILGNLCMQLVLGIPLEMVHKGLRVGLVYLAGVIAGSLASSIFDPLRYLVGASGGVYALMGGYFMNVLVNFQEMIPAFGIFRLLIIILIIVLDMGFALYRRFFVPEDGSPVSFAAHIAGGFAGMSIGYTVFSCFDKALLKDPRFWIAIAAYLACVLFAVFFNIFLSPAN
- protease activity against the uncleavable form of Spitz [4]: they could not cleave the TGFα TMD
- protease activity against the TGFα TMD with a restored G143 [5]: did cleave when only G143 was added back
